Data from patent publication US10053455B2, “Diazaspiroalkaneone-substituted oxazole derivatives as spleen tyrosine kinase inhibitors” (AB SCIENCE, priority 2014, dated 2018).
Read-outs that look alike come from different tables or passages of the source.

How the values were obtained:
murine model of asthma = assay: Mouse model of asthma: eosinophils recruitment in bronchio-alveolar lavage; type: in vivo, Balb/c male mice
Protocol: Balb/c male mice, 8 weeks old, were purchased from Janvier (Le Genest-Saint-Isle; FRANCE) and bred in the animal facility for 4 weeks. Drugs were dissolved in drinking solvent (80% water; 10% Tween 80 and 10% isopropanediol). It was aliquoted and stored at −20° C. Each mouse received drugs twice a day. The weight of animals was calculated before and after treatment.
Mice, 9 weeks of age, were sensitized with 50 μg of ovalbumin (Sigma-Aldrich, Germany) adsorbed to 2 mg Al(OH)3 (Prolabo, France) and diluted in physiological saline (0.9% NaCl). Ovalbumin was injected intraperitoneally on days 1 and 7. Sensitization was followed by intranasal challenges with 10 μg of ovalbumin diluted in 0.9% NaCl, each day from day 18 to day 21. On days 17 to 21, animals treated with drugs received 100 μl of a solution at 15 mg/ml, at 7.5 mg/ml or at 3.75 mg/ml administered per os twice a day during 5 days. These treatments corresponded to concentration of 60 mg/mouse kg, 30 mg/mouse kg and 15 mg/mouse kg respectively.
Bronchio-alveolar lavage (BAL) was performed after the animals were disconnected from the FlexiVent®. The airways were lavaged with 5 ml (10 times 0.5 ml) ice cold 0.9% NaCl 2.6 mM EDTA. BAL samples were centrifuged at 1200 rpm for 5 minutes at 4° C. Pellet cells were collected and erythrocytes lysed by adding 1.5 ml deionized water for 30 seconds. After neutralization with 0.5 ml of 0.6M KCl, cells were centrifuged at 1200 rpm for 5 minutes at 4° C. BAL samples were used to count the total cell number and to perform cytospins (shandon, Pontoise). Cell types were identified by morphological criteria after Hemacolor (Merck) staining.
Mice were sensitized and challenged with ovalbumin as described in protocol assays above. The mice were distributed in groups of 5-6 animals that were treated twice daily with 7.5 to 60 mg/Kg of anti-SYK/KIT drugs (PO).

Btk = Btk (Homo sapiens (Human), UniProt Q06187); assay: HTRF kinase assay, Btk; type: biochemical; details: enzymatic determination
Protocol: (§1) Most of the kinases tested in this study were cloned, expressed and purified in the facilities of the inventors. They were expressed either as N-terminus hexahistidine-, hexahistidine-asparagine- or GST-tagged enzymes in a baculovirus or in a Colibacille expression system. Remaining enzymes (JAKs) were purchased from Millipore or Proqinase. For each enzyme, steady state kinetic parameters were determined and validated with known inhibitors.
(§2) The analysis of the effect of compounds on kinase activity was assessed with the HTRF® KinEASE assay (Cisbio International), an immuno-assay based on the quantification of the level of phosphorylation of a biotinylated peptide substrate using anti-phospho-specific antibody labeled with Europium (Eu^3+) cryptate. This assay comprises two steps: —an enzymatic step, during which the peptide substrate, the kinase, ATP, Mg^2+ and/or Mn^2+ are incubated with varying concentration of drug (from 0 to 10 μM); —a detection step, at the end of the reaction (stopped by addition of EDTA which chelates Mg^2+), the antibody anti-phospho peptide-Eu^3+ (emission 620 nm) and streptavidin XL-665 (emission 665 nm) are added to the reaction mix. […] Results are expressed in delta fluorescence (DF) unit defined as follow DF %=[(ratio−ratio blank)/(ratio blank)]*100, where ratio=(665 nm/620 nm)*10^4. […]

Jak1 = Jak1 (Homo sapiens (Human), UniProt P23458); assay: HTRF kinase assay, Jak1; type: biochemical; details: enzymatic determination
Protocol: as §1, §2

hERG = hERG (Homo sapiens (Human), UniProt Q12809); assay: Predictor hERG Fluorescence Polarization binding assay; details: 100% = E-4031
Protocol: The activity of the test compounds on the hERG potassium channel was evaluated using a binding assay provided by Invitrogen (Predictor hERG Fluorescence Polarization assay Kit PV5365). The test was performed at a single concentration of 3 μM of drug. […] The data are expressed as a percentage of hERG inhibition, 100% corresponding to the inhibition obtained with E-4031 and 0% with the solvent DMSO (negative control).

VEGFR2 = VEGFR2 (Homo sapiens (Human), UniProt P35968); assay: HTRF kinase assay, VEGFR2; type: biochemical; details: enzymatic determination
Protocol: as §1, §2

HepG2 tumor cell line = assay: Mitochondrial ToxGlo assay (ATP production and cytotoxicity); type: cell-based; details: HepG2, 20 μM, 2 hours
Protocol: Drug-induced mitochondrial toxicity was evaluated by monitoring oxygen consumption using a Clark oxygen electrode on mitochondria isolated from heart of healthy mouse (Mitologics S.A.S, France). Briefly, isolated mitochondria are placed at 37° C. in a sealed chamber that is exposed to the surface of a Clark oxygen electrode. The presence of oxygen caused the electrode to deliver a current to the oxygen monitor, which amplified the current and converted it to a voltage output that was directly proportional to the concentration of oxygen in the chamber. Drug-induced mitochondrial toxicity was also evaluated by monitoring mitochondrial ATP production using a cell-based assay (Mitochondrial ToxGlo™ assay, Promega Corporation (cat#G8000)). […] The test was performed on HepG2 tumor cell line grown in galactose medium in order to force the cancer cells to produce ATP via oxidative phosphorylation (crabtree effect). Cells were treated for 2 hours with 20 μM drug before analysis of ATP detection (Luminescent signal) and cytotoxicity (Fluorescent signal) as described by manufacturers using PHERAstar and POLARstar OMEGA microplate readers respectively (BMG Labteck Sari).

SYK kinase = SYK kinase (Homo sapiens (Human), UniProt P43405); assay: In vitro SYK inhibition assay (HTRF kinase assay); type: biochemical
Protocol: SYK kinase was purified as a full length protein in a baculovirus system near homogeneity. All kinase assays were performed with the Kinase TK (tyrosine kinase) HTRF (Homogeneous Time Resolved Fluorescence) assay developed by Cisbio international. […] Reactions were initiated upon introduction of the enzyme and terminated with the addition of one reaction volume (25 μl) of HTRF detection buffer. Plates were incubated for one hour at room temperature and the time resolved Fluorescence resonance energy transfer signal was measured in a Pherastar FS microplate reader (BMG Labtech).
as §1
The analysis of the effect of compounds on kinase activity was assessed with the HTRF® KinEASE assay (Cisbio International), an immuno-assay based on the quantification of the level of phosphorylation of a biotinylated peptide substrate using anti-phospho-specific antibody labeled with Europium (Eu^3+) cryptate. This assay comprises two steps: —an enzymatic step, during which the peptide substrate, the kinase, ATP, Mg^2+ and/or Mn^2+ are incubated with varying concentration of drug (from 0 to 10 μM); —a detection step, at the end of the reaction (stopped by addition of EDTA which chelates Mg^2+), the antibody anti-phospho peptide-Eu^3+ (emission 620 nm) and streptavidin XL-665 (emission 665 nm) are added to the reaction mix. After incubation, the obtained signal is proportional to the concentration of phosphorylated peptide in the sample. All measurements were performed on a BMG Labtech Pherastar FS apparatus. Results are expressed in delta fluorescence (DF) unit defined as follow DF %=[(ratio−ratio blank)/(ratio blank)]*100, where ratio=(665 nm/620 nm)*10^4. Each experiment was performed in duplicate and repeated two or three times.

TNFα = assay: FcεRI and Kit-induced TNFα cytokine release in BMMCs; type: cell-based, C57BL/6J mice
Protocol: Murine bone marrow mast cells (BMMCs) are obtained by flushing bone marrow cells from the femurs of C57BL/6J mice, and then cultured for 3-4 weeks in RPMI containing mouse recombinant IL-3 (30 ng/ml). Cells were sensitized overnight in IL3-depleted culture medium with 0.1-0.2 μg/ml anti-DNP-IgE (Sigma-Aldrich D8406). Cells were preincubated with inhibitors for 30 min, and then stimulated with 10 ng/ml antigen (Ag) and/or Stem Cell Factor (SCF) (30 ng/ml). The cells were incubated for 6 h. The supernatants were harvested, and the cytokine content measured using CISBIO IL6 and TNFα HTRF assay (cat#63ADKEBU043 and 6FMTNPEB respectively).

VEGFR2, sequence (P35968 20-1356, species assumed): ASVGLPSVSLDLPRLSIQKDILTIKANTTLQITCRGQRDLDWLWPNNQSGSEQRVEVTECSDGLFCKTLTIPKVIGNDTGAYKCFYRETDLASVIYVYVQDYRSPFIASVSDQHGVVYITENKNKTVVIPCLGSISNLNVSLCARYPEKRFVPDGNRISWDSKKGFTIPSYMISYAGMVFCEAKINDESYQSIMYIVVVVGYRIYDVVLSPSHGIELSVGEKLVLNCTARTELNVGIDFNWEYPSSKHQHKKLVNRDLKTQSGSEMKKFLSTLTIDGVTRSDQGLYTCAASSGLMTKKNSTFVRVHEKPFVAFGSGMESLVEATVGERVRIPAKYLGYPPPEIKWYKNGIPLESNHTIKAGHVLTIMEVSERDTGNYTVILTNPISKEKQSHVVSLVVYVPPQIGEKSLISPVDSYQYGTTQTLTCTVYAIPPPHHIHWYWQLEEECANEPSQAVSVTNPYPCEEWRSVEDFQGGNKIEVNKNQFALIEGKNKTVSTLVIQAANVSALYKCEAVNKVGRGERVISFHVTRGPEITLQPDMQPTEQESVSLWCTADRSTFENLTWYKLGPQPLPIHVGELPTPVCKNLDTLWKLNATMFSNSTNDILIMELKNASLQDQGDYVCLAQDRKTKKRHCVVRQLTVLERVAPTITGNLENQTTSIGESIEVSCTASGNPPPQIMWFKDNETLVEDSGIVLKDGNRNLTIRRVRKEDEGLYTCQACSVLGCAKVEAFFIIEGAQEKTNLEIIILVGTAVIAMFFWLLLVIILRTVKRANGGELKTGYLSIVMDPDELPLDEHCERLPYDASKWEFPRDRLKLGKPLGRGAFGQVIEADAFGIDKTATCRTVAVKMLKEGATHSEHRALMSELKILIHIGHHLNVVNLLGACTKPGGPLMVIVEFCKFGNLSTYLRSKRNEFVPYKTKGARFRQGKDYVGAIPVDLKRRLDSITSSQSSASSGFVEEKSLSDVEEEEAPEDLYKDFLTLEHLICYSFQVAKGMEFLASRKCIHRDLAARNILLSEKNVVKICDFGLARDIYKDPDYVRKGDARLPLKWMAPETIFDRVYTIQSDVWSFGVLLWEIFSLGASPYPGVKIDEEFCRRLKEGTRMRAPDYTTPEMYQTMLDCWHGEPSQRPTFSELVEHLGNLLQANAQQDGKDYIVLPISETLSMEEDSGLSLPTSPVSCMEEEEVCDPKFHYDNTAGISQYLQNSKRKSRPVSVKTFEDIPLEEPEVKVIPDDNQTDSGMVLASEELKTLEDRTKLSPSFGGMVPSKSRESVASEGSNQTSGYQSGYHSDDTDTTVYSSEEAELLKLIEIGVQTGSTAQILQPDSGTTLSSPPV
Jak1, sequence (P23458 whole entry): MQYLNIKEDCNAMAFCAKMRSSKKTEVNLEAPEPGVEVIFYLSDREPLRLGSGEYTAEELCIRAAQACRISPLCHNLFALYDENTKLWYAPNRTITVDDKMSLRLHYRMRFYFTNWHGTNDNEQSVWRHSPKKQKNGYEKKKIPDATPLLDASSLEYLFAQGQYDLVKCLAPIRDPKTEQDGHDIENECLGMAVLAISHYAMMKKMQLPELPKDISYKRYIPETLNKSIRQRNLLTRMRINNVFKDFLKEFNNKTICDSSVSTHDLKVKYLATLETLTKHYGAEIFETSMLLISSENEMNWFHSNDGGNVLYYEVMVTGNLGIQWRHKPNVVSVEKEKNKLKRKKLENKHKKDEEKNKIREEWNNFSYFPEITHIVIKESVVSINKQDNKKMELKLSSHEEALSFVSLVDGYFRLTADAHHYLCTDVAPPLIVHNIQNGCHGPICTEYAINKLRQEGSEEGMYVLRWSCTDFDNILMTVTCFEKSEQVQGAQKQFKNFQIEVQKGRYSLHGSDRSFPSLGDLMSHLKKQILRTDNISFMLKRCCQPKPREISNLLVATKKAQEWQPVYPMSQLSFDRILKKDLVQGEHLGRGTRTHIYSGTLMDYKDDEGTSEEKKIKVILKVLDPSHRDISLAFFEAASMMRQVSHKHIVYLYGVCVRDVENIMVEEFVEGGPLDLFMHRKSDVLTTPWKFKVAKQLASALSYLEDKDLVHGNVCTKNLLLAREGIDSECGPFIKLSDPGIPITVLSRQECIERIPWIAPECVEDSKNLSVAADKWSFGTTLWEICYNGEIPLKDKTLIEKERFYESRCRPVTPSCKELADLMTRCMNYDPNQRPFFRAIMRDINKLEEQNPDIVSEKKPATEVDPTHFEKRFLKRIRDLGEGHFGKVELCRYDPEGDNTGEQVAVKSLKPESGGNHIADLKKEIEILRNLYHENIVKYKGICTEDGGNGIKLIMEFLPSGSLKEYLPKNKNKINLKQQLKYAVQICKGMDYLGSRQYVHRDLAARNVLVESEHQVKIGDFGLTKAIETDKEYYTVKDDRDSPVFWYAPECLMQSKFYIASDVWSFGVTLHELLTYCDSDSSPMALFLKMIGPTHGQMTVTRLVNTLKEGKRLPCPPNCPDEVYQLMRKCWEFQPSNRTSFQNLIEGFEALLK
Btk, sequence (Q06187 whole entry, species assumed): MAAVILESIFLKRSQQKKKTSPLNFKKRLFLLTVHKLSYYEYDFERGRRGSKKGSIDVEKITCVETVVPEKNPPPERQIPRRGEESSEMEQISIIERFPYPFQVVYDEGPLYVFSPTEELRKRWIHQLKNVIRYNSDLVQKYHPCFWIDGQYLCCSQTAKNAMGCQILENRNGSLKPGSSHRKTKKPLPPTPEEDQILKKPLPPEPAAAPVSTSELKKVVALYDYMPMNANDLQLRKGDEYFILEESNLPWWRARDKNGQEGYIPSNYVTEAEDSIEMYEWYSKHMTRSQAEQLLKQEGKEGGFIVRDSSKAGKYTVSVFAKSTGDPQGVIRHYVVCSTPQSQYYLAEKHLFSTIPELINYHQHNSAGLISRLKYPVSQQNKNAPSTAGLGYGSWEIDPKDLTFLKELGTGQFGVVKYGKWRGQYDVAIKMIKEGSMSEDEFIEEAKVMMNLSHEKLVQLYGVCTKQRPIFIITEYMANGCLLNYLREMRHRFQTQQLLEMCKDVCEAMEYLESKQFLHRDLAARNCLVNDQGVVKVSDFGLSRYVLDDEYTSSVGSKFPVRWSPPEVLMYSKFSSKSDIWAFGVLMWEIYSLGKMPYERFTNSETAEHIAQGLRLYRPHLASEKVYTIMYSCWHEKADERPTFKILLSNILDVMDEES
hERG, sequence (Q12809 whole entry): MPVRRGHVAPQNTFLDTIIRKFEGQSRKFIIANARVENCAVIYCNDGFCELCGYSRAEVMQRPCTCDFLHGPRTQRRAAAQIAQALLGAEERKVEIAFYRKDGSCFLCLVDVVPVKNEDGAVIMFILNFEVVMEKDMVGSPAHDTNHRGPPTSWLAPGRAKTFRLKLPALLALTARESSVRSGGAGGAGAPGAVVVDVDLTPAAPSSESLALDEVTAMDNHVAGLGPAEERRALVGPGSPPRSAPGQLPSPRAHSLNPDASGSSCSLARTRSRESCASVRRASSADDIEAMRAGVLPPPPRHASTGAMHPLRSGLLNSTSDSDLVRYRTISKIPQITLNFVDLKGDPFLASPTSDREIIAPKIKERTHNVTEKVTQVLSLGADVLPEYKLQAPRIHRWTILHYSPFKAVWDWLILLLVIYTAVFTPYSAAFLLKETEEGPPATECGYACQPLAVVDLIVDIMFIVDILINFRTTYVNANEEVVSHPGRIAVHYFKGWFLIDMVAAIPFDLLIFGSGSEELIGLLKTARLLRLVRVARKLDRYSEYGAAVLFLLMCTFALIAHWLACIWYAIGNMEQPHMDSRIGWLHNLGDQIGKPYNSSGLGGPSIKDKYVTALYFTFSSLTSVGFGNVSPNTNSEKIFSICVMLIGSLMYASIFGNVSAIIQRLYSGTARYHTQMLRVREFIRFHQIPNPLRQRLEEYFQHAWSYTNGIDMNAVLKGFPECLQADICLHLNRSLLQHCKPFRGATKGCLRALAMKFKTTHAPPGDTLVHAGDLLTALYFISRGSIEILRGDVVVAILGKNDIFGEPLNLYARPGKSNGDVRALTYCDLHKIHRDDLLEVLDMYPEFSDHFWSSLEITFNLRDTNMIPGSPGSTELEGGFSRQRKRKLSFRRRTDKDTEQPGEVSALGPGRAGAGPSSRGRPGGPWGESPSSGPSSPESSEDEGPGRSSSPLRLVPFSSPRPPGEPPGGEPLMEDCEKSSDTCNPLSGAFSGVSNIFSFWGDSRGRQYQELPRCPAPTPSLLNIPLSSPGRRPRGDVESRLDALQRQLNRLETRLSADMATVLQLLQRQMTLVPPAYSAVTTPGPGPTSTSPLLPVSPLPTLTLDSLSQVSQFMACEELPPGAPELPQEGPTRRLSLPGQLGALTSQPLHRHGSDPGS

Q: For `Cc1ccnc(Nc2cccc(-c3cnc(N4CCNC(=O)C45CC5)o3)c2)n1` [Compound 001, 4-{5-[3-(4-Methyl-pyrimidin-2-ylamino)-phenyl]-oxazol-2-yl}-4,7-diaza-spiro[2.5]octan-8-one], which “Percentage of Eosinophils recruitment in Bronchio-alveolar lavage (BAL)” value (murine model of asthma; Experiment #2, 2 × 15 mg/kg/day PO) is on record?
A: −14%

Q: And the “Percentage of Eosinophils recruitment in Bronchio-alveolar lavage (BAL)” value (murine model of asthma; Experiment #2, 2 × 30 mg/kg/day PO)?
A: −47%

Q: And the IC50 (Btk)?
A: 20 µM

Q: What about the IC50 (Jak1) of the same molecule?
A: 3.4 µM

Q: What about the inhibition at 3 µM (hERG) of the same molecule?
A: 0%

Q: What about the IC50 (VEGFR2) of the same molecule?
A: 20 µM

Q: What about the “ATP production relative to DMSO (100%) Mito ToxGlo” value (HepG2 tumor cell line) of the same molecule?
A: 104%

Q: What about the “Cytotoxicity relative to DMSO (0%) Mito ToxGlo” value (HepG2 tumor cell line) of the same molecule?
A: 11%

Q: And the “ATP production relative to DMSO (100%) Mito ToxGlo” value (HepG2 tumor cell line; listed as compound 001)?
A: 104%

Q: And the “Cytotoxicity relative to DMSO (0%) Mito ToxGlo” value (HepG2 tumor cell line; listed as compound 001)?
A: 11%

Q: What about the IC50 (SYK kinase; enzymatic determination, read-out: Kinase activity profile IC50 Syk) of the same molecule?
A: 0.041 µM

Q: What about the IC50 (SYK kinase; read-out: Syk (IC50)) of the same molecule?
A: < 0.5 µM

Q: And the “TNFα Cytokine Release (% relative to control Ag + SCF)” value (TNFα; Ag + SCF + 0.01 μM of compound)?
A: 95%

Q: And the “TNFα Cytokine Release (Relative Fluorescence Units)” value (TNFα; Ag + SCF + 0.01 μM of compound)?
A: 468 Relative Fluorescence Units

Q: What about the “TNFα Cytokine Release (% relative to control Ag + SCF)” value (TNFα; Ag + SCF + 0.1 μM of compound) of the same molecule?
A: 32%

Q: And the “TNFα Cytokine Release (Relative Fluorescence Units)” value (TNFα; Ag + SCF + 0.1 μM of compound)?
A: 158 Relative Fluorescence Units

Q: And the “TNFα Cytokine Release (% relative to control Ag + SCF)” value (TNFα; Ag + SCF + 1 μM of compound)?
A: 2%

Q: And the “TNFα Cytokine Release (Relative Fluorescence Units)” value (TNFα; Ag + SCF + 1 μM of compound)?
A: 9.5 Relative Fluorescence Units

Q: And the IC50 (TNFα; Mus musculus, BMMC, Ag + SCF stimulated BMMCs)?
A: ~0.05 µM
